According to paper PMC6533151 (Neuron, 2019):
Where “and” joins values, the source holds several entries; their conditions need not be identical. Identical values can stand only once. Counter-ions that a name gives are not always drawn. Like-named read-outs stand apart in the source and are kept apart here.

Tests used:
GRABDA1m = conditions: 50 μM DA
GRABNE1m [1] = target: T1, GRABNE1m (Homo sapiens, UniProt P08913); assay type: cell-based; conditions: cultured neurons
GRABNE sensors = experiment: Ligand specificity and dynamic range of GRABNE sensors; assay type: cell-based, human; conditions: for fluorescence response of the sensors to the compound: HEK293T cells, Fig. 2G
GRABNE1m [2] = conditions: cultured hippocampal slices; puff application in ACSF
GRABNE1h [3] = experiment: GRABNE1h fluorescence in acute mouse hippocampal slices; assay type: cell-based, human
[4] = tested on: optogenetically evoked NE release in the LC (GRABNE1m fluorescence); assay type: in vivo, mouse; conditions: i.p.; desipramine 10 mg/kg, yohimbine 2 mg/kg
[5] = tested on: NE dynamics in the lateral hypothalamus (GRABNE1m fluorescence); assay type: in vivo, mouse; conditions: i.p.; atomoxetine 3 mg/kg, yohimbine 2 mg/kg, GBR 12909 10 mg/kg, sulpiride 50 mg/kg
[6] = tested on: looming-evoked NE release (GRABNE1m fluorescence); experiment: Looming-evoked GRABNE1m fluorescence in optic tectum of zebrafish; assay type: in vivo; conditions: for effect on looming-induced increase in GRABNE1m fluorescence: bath application 50 μM
GRABNEmut [7] = assay type: cell-based, human; conditions: cultured hippocampal slices
GRABNE1m [8] = experiment: Bath application to Tg; assay type: in vivo, zebrafish
GRABNE1h [9] = assay type: cell-based, human; conditions: cultured hippocampal slices; puff application in ACSF
GRABNEmut [10] = experiment: Fluorescence response of GRABNEmut expressed in HEK293T cells; assay type: cell-based, human; conditions: 100 μM NE
GRABNE1m [11] = target: T1, GRABNE1m; assay type: cell-based
GRABNEmut [12] = experiment: Bath application to zebrafish expressing GRABNEmut; assay type: in vivo; conditions: 50 μM NE
GRABNE1h [13] = target: GRABNE1h (Homo sapiens, UniProt P08913, T388K); experiment: Fluorescence response of GRABNE1h expressed in HEK293T cells; assay type: cell-based
GRABNE1m [14] = assay type: cell-based, human
[15] = tested on: release of endogenous NE in the LC (GRABNE1m fluorescence); assay type: cell-based, mouse
GRABNE1h [16] = experiment: Fluorescence response of GRABNE1h expressed in HEK293T cells; assay type: cell-based, human; conditions: 10 μM yohimbine

For `NCCc1ccc(O)c(O)c1` [DA, Dopamine hydrochloride], the “fluorescence response to application” value (GRABDA1m) was “responded robustly”.
In the case of `CNC[C@H](O)c1ccc(O)c(O)c1` [Epi, Epinephrine hydrochloride], the “fluorescence response to the compound” value (GRABNE1m [1]; compounds at 10 μM each) is reported as “responded specifically”, the “fluorescence response of the sensors to the compound” value (shortened to “fluorescence response of the sensors”) (GRABNE sensors) is reported as “responded” and the “fluorescence response to exogenous application” value (GRABNE1m [2]) is reported as “generated fluorescence increases”. The “fluorescence response to exogenous application” value (GRABNE1h [3]) was “evoked a fluorescence increase”.
For `Fc1ccc(C(OCCN2CCN(CCCc3ccccc3)CC2)c2ccc(F)cc2)cc1` [GBR 12909], the “effect on light-evoked GRABNE1m responses” value [4] was “had no effect”, the “effect on GRABNE1m peak fluorescence during tail suspension” value [5] was “had no effect” and the “effect on time to return to baseline after tail suspension” value (from here on “effect on time to return to baseline”) [5] was “had no effect”.
For `Cc1ccc(OCC(O)C(C)NC(C)C)c2c1CCC2.Cl` (stereo not drawn) [ICI 118,551, ICI 118,551 hydrochloride], the “effect on looming-induced increase in GRABNE1m fluorescence” value [6] was “unaffected”.
For `NC[C@H](O)c1ccc(O)c(O)c1` [NE, Norepinephrine], the “fluorescence response to exogenous application” value (GRABNEmut [7]) was “no detectable effect”, the “fluorescence response to bath application” value (GRABNE1m [8]; 50 μM, tectal neuropil, larvae) was “elicited a robust increase in fluorescence intensity” and the “fluorescence response to exogenous application” value (GRABNE1h [9]) was “evoked a robust increase in fluorescence”. For the same molecule, the “fluorescence response to NE” value (GRABNEmut [10]) was “does not respond”, the “fluorescence response of the sensors” value (GRABNE sensors) was “responded” and the “peak ΔF/F0 response / dynamic range of the GRABNE sensor family” value (GRABNE sensors; saturating NE) was 230% and ~ 200%. For the same molecule, the “fluorescence response to exogenous application” value (GRABNE1m [2]) was “evoked a robust increase in fluorescence”, the “average τoff” value (GRABNE1m [11]; HEK293T cells, NE followed by 200 μM yohimbine, line scanning) was 680 ms and the “internalization of GRABNE1m” value (GRABNE1m [11]; saturating concentration of NE for 2 h) was “no internalization”. The “fluorescence response to NE” value (GRABNEmut [12]) was “did not respond”, the “maximum ΔF/F0” value (GRABNE1h [13]; 100 μM NE) was ~ 130% and the “mean on time constant after photolysis of NPEC-caged NE” value (GRABNE1h [13]; 405-nm uncaging, single exponential fit) was 137 ms. For the same molecule, the “average τoff” value (GRABNE1h [13]; NE followed by 200 μM yohimbine, line scanning) was 1890 ms, the “increase in sensitivity to NE compared with GRABNE1m” value (GRABNE1h [13]; T6.34K point mutation) was 10 fold and the “fluorescence response to exogenous application” value (GRABNE1h [3]) was “evoked a fluorescence increase”.
With `CNCC[C@@H](Oc1ccccc1C)c1ccccc1` [atomoxetine, Atomoxetine hydrochloride] the “effect on GRABNE1m peak fluorescence during tail suspension” value [5] was “had no effect” and the “effect on time to return to baseline” value [5] was “significantly slowed the return of signal to its baseline”.
In the case of `Brc1c(NC2=NCCN2)ccc2nccnc12` [brimonidine, UK 14,304 tartrate], the “fluorescence response of the sensors” value (GRABNE sensors) is reported as “responded”, the “fluorescence response to exogenous application” value (GRABNE1m [2]) is reported as “generated fluorescence increases” and the “fluorescence response to exogenous application” value (GRABNE1h [3]) is reported as “evoked a fluorescence increase”.
`CNCCCN1c2ccccc2CCc2ccccc21` [desipramine, Desipramine hydrochloride] was tested, and the “effect on decay of looming-induced fluorescence signal” value ([6]; desipramine 50 μM) was “slowed the decay of the fluorescence signal”, the “effect on basal GRABNE1m fluorescence” value [4] was “slow progressive increase” and the “effect on light-evoked GRABNE1m responses” value [4] was “increase in the magnitude and decay time”.
With `CCc1cc(Cl)c(OC)c(C(=O)NC[C@@H]2CCCN2CC)c1O` [eticlopiride, Eticlopride hydrochloride] the “effect on light-evoked GRABNE1m responses” value [4] was “had no effect”.
In the case of `CCN1CCCC1CNC(=O)c1cc(S(N)(=O)=O)ccc1OC` (stereo not drawn) [sulpiride, Sulpiride], the “effect on GRABNE1m peak fluorescence during tail suspension” value [5] is reported as “had no effect” and the “effect on time to return to baseline” value [5] is reported as “had no effect”.
`COC(=O)[C@@H]1[C@H]2C[C@H]3c4[nH]c5ccccc5c4CCN3C[C@@H]2CC[C@@H]1O` [yohimbine, Yohimbine hydrochloride] was tested, and the “block of NE-induced fluorescence increase” value (GRABNE1m [8]; 50 μM antagonist after 50 μM NE) was “blocked completely”, the “block of NE-induced fluorescence increase” value (GRABNE1m [14]) was “blocked completely” and the “block of GRABNE1m response to applied NE” value ([15]; 50 μM NE, 20 μM yohimbine, Fig. 4H) was “abolished”. The “effect on stimulation-induced fluorescence response” value ([15]; 20 pulses at 20 Hz, 4-AP 100 μM, Cd2+ 100 μM, desipramine 10 μM, yohimbine 20 μM) was “blocked the response”, the “effect on looming-induced increase in GRABNE1m fluorescence” value [6] was “blocked” and the “block of NE-induced fluorescence increase” value (GRABNE sensors; GRABNE-expressing HEK293T cells) was “blocked”. For the same molecule, the “effect on basal GRABNE1m fluorescence” value [4] was “abolished”, the “effect on light-evoked GRABNE1m responses” value [4] was “abolished” and the “block of uncaging-induced fluorescence increase” value (GRABNE1h [16]) was “blocked”. The “block of agonist-evoked fluorescence increase” value (GRABNE1h [3]) was “blocked”, the “block of electrically evoked fluorescence increase” value (GRABNE1h [3]; stimuli at 20 Hz for 1 s) was “blocked” and the “effect on GRABNE1m peak fluorescence during tail suspension” value [5] was “decreased”. The “effect on time to return to baseline” value [5] was “significantly accelerated the return to baseline”.
In the case of pertussis toxin, the “effect on NE-induced fluorescence change” value (GRABNE1m [1]; inhibiting G protein activation) is reported as “did not affect”, the “effect on NE-induced fluorescence response” value (GRABNE1m [11]; HEK293T cells, blocking G protein activation) is reported as “had no effect” and the “effect on NE-induced fluorescence response” value (GRABNE1h [13]; blocking G protein activation) is reported as “had no effect”.
